Four cell lines from the supplement of paper PMC10307832 can be followed below.

Holding throughout (assay): relative viability (nuclei count vs DMSO), 5 days (fraction); higher = more cells survive
Compound in one assay: COc1ncc(-c2ccc3nccc(-c4ccnnc4)c3c2)cc1NS(=O)(=O)c1ccc(F)cc1F [Omipalisib]
An outline of the steps: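 Lung cancer cell lines were seeded into 1536-well plates, kept overnight at 37 °C and pinned with five library-drug doses (not always all listed) spaced by √10. After 5 days, nuclei were Hoechst-stained, imaged at 4× and counted with MetaXpress. Viability is treated-well nuclei over vehicle-well nuclei, taken as a median across plates. Plates needed control CV below 25% and at least one doubling.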

Compound in the assay “Omipalisib + Trametinib”: COc1ncc(-c2ccc3nccc(-c4ccnnc4)c3c2)cc1NS(=O)(=O)c1ccc(F)cc1F [Omipalisib] + CC(=O)Nc1cccc(-n2c(=O)n(C3CC3)c(=O)c3c(Nc4ccc(I)cc4F)n(C)c(=O)c(C)c32)c1 [Trametinib] (partner 0.02 µM)
An outline of the steps:
(§1)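 Relative viability divides the nuclei count in treated wells by that in vehicle wells. Lung cancer cell lines were seeded in 1536-well plates, dosed by pin tool the next day, and fixed and stained after 5 days in one step with final 0.05% Triton X-100, 1% formaldehyde and 1 ug/ml Hoechst. Dosing was a single drug or a fixed anchor-drug dose plus five library-drug doses (not always all listed) in √10 steps, and values are medians of duplicate plates imaged at 4×.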

Compound in the assay “Omipalisib + Bortezomib”: COc1ncc(-c2ccc3nccc(-c4ccnnc4)c3c2)cc1NS(=O)(=O)c1ccc(F)cc1F [Omipalisib] + CC(C)C[C@H](NC(=O)[C@H](Cc1ccccc1)NC(=O)c1cnccn1)B(O)O [Bortezomib] (partner 0.002 µM)
Summed up: as §1

Compound in the assay “Omipalisib + Phenformin”: COc1ncc(-c2ccc3nccc(-c4ccnnc4)c3c2)cc1NS(=O)(=O)c1ccc(F)cc1F [Omipalisib] + N=C(N)NC(=N)NCCc1ccccc1 [Phenformin] (partner 250 µM)
An outline of the steps:
as §1

Compound in the assay “Omipalisib + Decitabine”: COc1ncc(-c2ccc3nccc(-c4ccnnc4)c3c2)cc1NS(=O)(=O)c1ccc(F)cc1F [Omipalisib] + Nc1ncn([C@H]2C[C@H](O)[C@@H](CO)O2)c(=O)n1 [Decitabine] (partner 2 µM)
Summed up:
as §1

Compound in the assay “Omipalisib + Vorinostat”: COc1ncc(-c2ccc3nccc(-c4ccnnc4)c3c2)cc1NS(=O)(=O)c1ccc(F)cc1F [Omipalisib] + O=C(CCCCCCC(=O)Nc1ccccc1)NO [Vorinostat] (partner 1 µM)
Summed up:
as §1

As to NCI-H1792, the relative viability stood at 0.91 with Omipalisib (0.0003 µM); 0.495 with Omipalisib (0.003 µM); 0.213 in the assay with Omipalisib (0.03 µM); 0.42 in the assay with Omipalisib + Trametinib (first compound 0.0003 µM); 0.169 with Omipalisib + Trametinib (first compound 0.003 µM); 0.116 in the assay with Omipalisib + Trametinib (first compound 0.03 µM). The relative viability turned out to be 0.872 with Omipalisib + Bortezomib (first compound 0.0003 µM); 0.927 in the assay with Omipalisib + Bortezomib (first compound 0.003 µM); 0.398 with Omipalisib + Bortezomib (first compound 0.03 µM); 0.351 in the assay with Omipalisib + Phenformin (first compound 0.0003 µM); 0.115 with Omipalisib + Phenformin (first compound 0.003 µM); 0.0784 in the assay with Omipalisib + Phenformin (first compound 0.03 µM). The relative viability amounted to 0.428 in the assay with Omipalisib + Decitabine (first compound 0.0003 µM), 0.37 with Omipalisib + Decitabine (first compound 0.003 µM) and 0.101 in the assay with Omipalisib + Decitabine (first compound 0.03 µM).
Consider RERF-LC-KJ, for which the relative viability with Omipalisib (0.0003 µM) amounted to 0.942; with Omipalisib (0.003 µM) it was 0.733; in the assay with Omipalisib (0.03 µM), 0.571; in the assay with Omipalisib + Trametinib (first compound 0.0003 µM) it was 0.769; in the assay with Omipalisib + Trametinib (first compound 0.003 µM), 0.635; in the assay with Omipalisib + Trametinib (first compound 0.03 µM), 0.413. Besides, the relative viability with Omipalisib + Bortezomib (first compound 0.0003 µM) came out at 1.1; in the assay with Omipalisib + Bortezomib (first compound 0.003 µM), 0.795; with Omipalisib + Bortezomib (first compound 0.03 µM), 0.664; with Omipalisib + Phenformin (first compound 0.0003 µM), 0.416; with Omipalisib + Phenformin (first compound 0.003 µM), 0.371; with Omipalisib + Phenformin (first compound 0.03 µM) it was 0.28. In addition, the relative viability stood at 0.637 in the assay with Omipalisib + Decitabine (first compound 0.0003 µM); 0.502 with Omipalisib + Decitabine (first compound 0.003 µM); 0.434 with Omipalisib + Decitabine (first compound 0.03 µM); 0.627 with Omipalisib + Vorinostat (first compound 0.0003 µM); 0.52 with Omipalisib + Vorinostat (first compound 0.003 µM); 0.424 in the assay with Omipalisib + Vorinostat (first compound 0.03 µM).
On to COR-L23, for which the relative viability with Omipalisib (0.0003 µM) turned out to be 1.01; with Omipalisib (0.003 µM), 1; in the assay with Omipalisib (0.03 µM), 0.631; with Omipalisib + Trametinib (first compound 0.0003 µM), 0.496; in the assay with Omipalisib + Trametinib (first compound 0.003 µM), 0.342; with Omipalisib + Trametinib (first compound 0.03 µM), 0.249. Moreover, the relative viability in the assay with Omipalisib + Bortezomib (first compound 0.0003 µM) was 1; in the assay with Omipalisib + Bortezomib (first compound 0.003 µM) it was 0.934; with Omipalisib + Bortezomib (first compound 0.03 µM) it was 0.63; with Omipalisib + Phenformin (first compound 0.0003 µM) it was 0.461; in the assay with Omipalisib + Phenformin (first compound 0.003 µM), 0.508; with Omipalisib + Phenformin (first compound 0.03 µM), 0.406. Moreover, the relative viability worked out at 0.433 with Omipalisib + Decitabine (first compound 0.0003 µM); 0.355 with Omipalisib + Decitabine (first compound 0.003 µM); 0.296 with Omipalisib + Decitabine (first compound 0.03 µM); 0.404 in the assay with Omipalisib + Vorinostat (first compound 0.0003 µM); 0.377 with Omipalisib + Vorinostat (first compound 0.003 µM); 0.242 with Omipalisib + Vorinostat (first compound 0.03 µM).
As for UMC-11, the relative viability was determined as 0.886 in the assay with Omipalisib (0.0003 µM); 0.643 in the assay with Omipalisib (0.003 µM); 0.823 with Omipalisib (0.03 µM); 0.612 with Omipalisib + Trametinib (first compound 0.0003 µM); 0.359 with Omipalisib + Trametinib (first compound 0.003 µM); 0.36 with Omipalisib + Trametinib (first compound 0.03 µM). Besides, the relative viability in the assay with Omipalisib + Bortezomib (first compound 0.0003 µM) was found to be 0.678; with Omipalisib + Bortezomib (first compound 0.003 µM), 0.556; with Omipalisib + Bortezomib (first compound 0.03 µM), 0.643; with Omipalisib + Phenformin (first compound 0.0003 µM), 0.338; with Omipalisib + Phenformin (first compound 0.003 µM) it was 0.329; with Omipalisib + Phenformin (first compound 0.03 µM), 0.316. Besides, the relative viability in the assay with Omipalisib + Decitabine (first compound 0.0003 µM) turned out to be 0.491; with Omipalisib + Decitabine (first compound 0.003 µM) it was 0.397; with Omipalisib + Decitabine (first compound 0.03 µM), 0.527; with Omipalisib + Vorinostat (first compound 0.0003 µM), 0.416; in the assay with Omipalisib + Vorinostat (first compound 0.003 µM), 0.281; with Omipalisib + Vorinostat (first compound 0.03 µM), 0.264.
